Where two headings read alike, the source gives them in different places.
Key:
[1] = test system: HCV replicon (HCV 1b-377-neo replicon cells); assay: HCV replicon cell line FRET assay; format: cell-based; conditions: Hepatitis C virus
[2] = human
[3] = test system: wild-type Blast/Luciferase HCV replicon; format: cell-based; conditions: 0.5 μM Compound 124
[4] = Alamar blue cytotoxicity (CC50), wild-type replicon cells; format: cell-based; conditions: human, Huh-7 cells carrying the wild-type HCV 377-neo replicon; Wild-type replicon cell line
[5] = read-out: Replicon Inhibition Range EC50
[6] = Wild-type replicon cell line, FRET assay, read-out: EC50
[7] = HCV replicon cell line, FRET assay, read-out: Replicon Inhibition Range EC50

| SMILES | EC50 [1, 5] [nM] | EC50 [1, 6] [nM] | CC50 at 72 h [2] [nM] | replication of the replicon in the presence of compound [3] | CC50 at 72 h [4] [nM] | EC50 [1, 7] [nM] |
| --- | --- | --- | --- | --- | --- | --- |
| C[C@H](NC(=O)Cc1ccccc1)C(=O)Nc1ccc(C2S/C(=N\c3cccc(F)c3)N(Cc3ccco3)C2=O)cc1 (stereo partly drawn) [Compound 124, (N-{4-[2-(3-fluorophenylimino)-3-furan-2-ylmethyl-4-oxo-thiazolidin-5-yl]phenyl}-2S-(phenylacetylamino))propionamide] | < 100 | 103 | > 5000 | completely inhibited | > 5000 | – |
| C[C@H](NC(=O)OCc1ccccc1)C(=O)Nc1ccc(C2S/C(=N\c3cccc(F)c3)N(Cc3ccco3)C2=O)cc1 (stereo partly drawn) [Compound 1, (1S-(4-[2-(3-Fluorophenylimino)-3-furan-2-ylmethyl-4-oxo-thiazolidin-5-yl]-phenylcarbamoyl)ethyl)carbamic acid benzyl ester] | 100 to 1000 | 1500 | > 5000 | – | > 5000 | – |
| C[C@H](NC(=O)OCc1ccccc1)C(=O)Nc1ccc(C2S/C(=N\c3cccc(F)c3)N(CC3CCCO3)C2=O)cc1 (stereo partly drawn) [Compound 26] | – | – | – | – | – | 100 to 1000 |
| C[C@H](NC(=O)OCc1ccccc1)C(=O)Nc1ccc(C2S/C(=N\c3cccc(OC(F)(F)F)c3)N(Cc3ccco3)C2=O)cc1 (stereo partly drawn) [Compound 56] | – | – | – | – | – | 100 to 1000 |
| O=C(Nc1ccc(C2S/C(=N\c3cc(F)cc(F)c3)N(Cc3ccco3)C2=O)cc1)[C@@H]1CCCN1C(=O)OCc1ccccc1 (stereo partly drawn) [Compound 42] | – | – | – | – | – | 100 to 1000 |

Reference: patent US20050069522A1, “Combination pharmaceutical agents as inhibitors of HCV replication” (priority 2002, published 2005)
